From patent publication US8901116B2, “Method for treating pain, anxiety or depression using carbamoyloxy alkanoyl piperazine compound” (SK Biopharmaceuticals Co., Ltd., priority 2007, dated 2014)

Tests used:
Format in all cases: in vivo
[1] = system: male ICR mouse; test: Acetic acid-induced writhing test in mouse; details: po, p.o, acetic acid i.p. 1 hour after dosing, writhing counted for 10 minutes, read-out: Writhing Test Suppression of pain response
Method in brief: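 Test material given orally at 10 mg/kg to male mice (30–35 g); 1 h later 0.8% acetic acid injected i.p. Writhes counted over 10 min immediately afterwards; analgesia expressed as percent suppression of writhing versus vehicle group.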

[2] = system: male ICR mouse; test: Elevated plus maze (EPM) test in mouse; details: po, p.o, 1 hour after dosing, 5 minutes observation, read-out: Elevated Plus Maze Change index in Open-Arm Time
Method in brief: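 Male ICR mice (20–25 g) received test material orally at 10 mg/kg, and open-arm time on the maze was recorded over 5 min starting 1 h after dosing. Value is the change index in open-arm time: (treated − vehicle)/vehicle × 100%.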

[3] = system: male ICR mouse; test: Head twitch potentiation induced by 5-HTP (5-HTP potentiation test) in mouse; details: po, 0.5 h, p.o, 5-HTP 80 mg/kg + Carbidopa 25 mg/kg i.p. 30 minutes after dosing, head twitches counted for 2 minutes, negative = 5-HT2A antagonist, read-out: 5-HTP Potentiation Increase rate in Head Twitch No.
Method in brief: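 Male ICR mice (20-25 g) dosed orally at 30 mg/kg; 30 min later given 5-HTP (80 mg/kg) plus carbidopa (25 mg/kg) i.p. Head twitches counted for 2 min starting 30 min after i.p. dosing; effect expressed as % increase in twitch number versus vehicle group.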

[4] = system: male ICR mouse; test: Hot plate test in mouse; details: po, p.o, 1 hour after dosing, hot plate 55° C., read-out: Hot Plate Test Increase in latency of avoidance response
Method in brief: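 Male ICR mice (25–30 g) dosed orally at 30 mg/kg and placed on a 55° C. hot plate 1 h later. Latency to forefoot or hind-leg avoidance (flinching, licking, jumping) recorded; effect expressed as % increase in latency over vehicle group.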

Row | Compound | inhibition in vivo at 10 mg/kg [1] [%] | change in vivo at 10 mg/kg [2] [%] | change in vivo at 30 mg/kg [3] [%] | change in vivo at 30 mg/kg [4] [%]
1 | COc1cc(OC)cc(N2CCN(C(=O)CC(OC(N)=O)c3ccccc3)CC2)c1 (centres unmarked) [Example 11, carbamic acid 3-[4-(3,5-dimethoxy-phenyl)-piperazin-1-yl]-3-oxo-1-phenyl-propyl ester] | 5.5 | 19.8 | 31.3 | 46.1
2 | NC(=O)OC(CC(=O)N1CCN(c2cnc3ccccc3n2)CC1)c1ccccc1 (centres unmarked) [Example 22, carbamic acid 3-oxo-1-phenyl-3-(4-quinoxalin-2-yl-piperazin-1-yl)-propyl ester] | 29.4 | -21.2 | 3.9 | 38
3 | O=C1Nc2ccccc2C(CC(=O)N2CCN(c3ccccc3)CC2)O1 (centres unmarked) [Example 77, 4-[2-oxo-2-(4-phenyl-piperazin-1-yl)-ethyl]-1,4-dihydro-benzo[d][1,3]oxazin-2-one] | 26.4 | 4.9 | 25 | 30.4
4 | COc1ccc(N2CCN(C(=O)C[C@@H](OC(N)=O)c3ccccc3)CC2)cc1 [Example 70, (R)-carbamic acid 3-[4-(4-methoxy-phenyl)-piperazin-1-yl]-3-oxo-1-phenyl-propyl ester] | 59.8 | 109 | 87.9 | 30.6
5 | NC(=O)OC(CC(=O)N1CCN(c2ccccc2)CC1)c1cc(C(F)(F)F)cc(C(F)(F)F)c1 (centres unmarked) [Example 55, carbamic acid 1-(3,5-trifluoromethyl-phenyl)-3-oxo-3-(4-phenyl-piperazin-1-yl)-propyl ester] | 32.8 | 13.8 | 22.5 | 13.9
6 | NC(=O)OC(CC(=O)N1CCN(c2ccc(O)cc2)CC1)c1ccccc1 (centres unmarked) [Example 18, carbamic acid 3-[4-(4-hydroxy-phenyl)-piperazin-1-yl]-3-oxo-1-phenyl-propyl ester] | 30.6 | 16.1 | -23.4 | 26.4
7 | NC(=O)OC(CC(=O)N1CCN(c2ccc(Cl)c(C(F)(F)F)c2)CC1)c1ccccc1 (centres unmarked) [Example 27, carbamic acid 3-[4-(4-chloro-3-trifluoromethyl-phenyl)-piperazin-1-yl]-3-oxo-1-phenyl-propyl ester] | 29.1 | 66.7 | -78.1 | 41.2
8 | COc1ccc(N2CCN(C(=O)CC(OC(=O)N(C)C)c3ccccc3)CC2)cc1 (centres unmarked) [Example 19, dimethyl-carbamic acid 3-[4-(4-methoxy-phenyl)-piperazin-1-yl]-3-oxo-1-phenyl-propyl ester] | 34.2 | 0 | 60 | 49.4
9 | NC(=O)OC1c2ccccc2CCC1C(=O)N1CCN(c2ccccc2)CC1 (centres unmarked) [Example 52, carbamic acid-2-(4-phenyl-piperazine-1-carbonyl)-1,2,3,4-tetrahydro-naphthalene-1-yl ester] | 26.8 | 14.6 | 40 | 20.5
10 | Cc1ccc(C(CC(=O)N2CCN(c3ccccc3)CC2)OC(N)=O)cc1 (centres unmarked) [Example 32, carbamic acid 3-oxo-3-(4-phenyl-piperazin-1-yl)-1-p-tolyl-propyl ester] | 6 | 9.5 | -40 | 28.2
11 | CC(=O)Oc1ccc(N2CCN(C(=O)CC(OC(N)=O)c3ccccc3)CC2)cc1 (centres unmarked) [Example 23, acetic acid 4-[4-(3-carbamoyloxy-3-phenyl-propionyl)-piperazin-1-yl]-phenyl ester] | 21.1 | -25.1 | 100 | 29.4
12 | NC(=O)O[C@H](CC(=O)N1CCN(c2ccc(F)c(F)c2)CC1)c1ccccc1 [Example 67, (R)-carbamic acid 3-[4-(3,4-difluoro-phenyl)-piperazin-1-yl]-3-oxo-1-phenyl-propyl ester] | 45.1 | 34.3 | 58.8 | 34.3
13 | NC(=O)OC(CC(=O)N1CCN(c2ccccc2)CC1)c1ccccc1Cl (centres unmarked) [Example 43, carbamic acid 1-(2-chloro-phenyl)-3-oxo-3-(4-phenyl-piperazin-1-yl)-propyl ester] | 46 | 19.7 | 211 | 26.7
14 | CCOc1ccc(N2CCN(C(=O)C[C@@H](OC(N)=O)c3ccccc3)CC2)cc1 [Example 63, (R)-carbamic acid 3-[4-(4-ethoxy-phenyl)-piperazin-1-yl]-3-oxo-1-phenyl-propyl ester] | 59.8 | 25 | 19.5 | 15.2
